# Assay results reported in patent publication US20260272908A1 (VANDERBILT UNIVERSITY, priority 2023, published 2026).
# How the values were obtained:
# Meta4 organoids = assay: Meta4 dysplastic organoid growth and cell death (organoid diameter, phase-contrast, H&E, live/dead staining); assay type: cell-based, mouse; details: pyrvinium 100 nM, SSTC3 0.2-1 μM, STAT3-IN-1 1 μM, Sttatic 2 μM, 3 days; for cell death: trametinib 1 μM
# Experimental: (§1) All experiments were repeated at least three times.
# (§2) All experiments were performed at least in triplicate.
# [1] = tested on: human pre-cancerous organoid (hPCO) lines; assay: Human precancerous organoid (hPCO) growth and organoid death; details: STAT3 inhibitors; for response (growth and survival): pyrvinium-resistant hPCO-31
# Experimental: To establish human pre-cancer organoids (hPCO), fresh tissues were obtained from the gastric cancer patients who underwent curative gastrectomy at SNUH (IRB No. H-1806-166-954).
# Meta3, Meta4, and hPCO organoids were cultured in Matrigel (ECM, Sigma) with Mouse or Human IntestiCult medium (StemCell Technology) supplemented with 1% of penicillin/streptomycin (Gibco) in 48-well plates and medium was replaced every 3 days. The organoids were split every 5-7 days before they formed budding structures.
# Mouse or human organoids were split and cultured in the Mouse or Human IntestiCult media for 1-2 days until they formed three-dimensional (3D) spherical structures, then the media was switched to media containing either DMSO vehicle or a certain concentration of each drug and cultured for 3 days. The EVOS M7000 inverted microscope were used to obtain phase contrast images of organoids. All experiments were repeated at least three times.
# The number and diameters of mouse and human organoids treated with drugs were manually counted and measured at day 0 and 3 or 6 after treatment from four entire well images of each condition at 4× magnification. For counting live or dead cells, organoids were stained with Calcein AM for live cells and EthD-1 for dead cells 3 days after treatment and the number of EthD-1 positive organoids were manually counted from images taken from three wells of each condition at 4× magnification. All experiments were performed at least in triplicate. The mean values from each condition were compared by Student's paired or unpaired t-test using Graphpad Prism. *P<0.05, **P<0.01, ***P<0.001, ****P<0.0001.
# Meta3 organoids = assay: Meta3 metaplastic organoid growth and survival (organoid diameter, phase-contrast); assay type: cell-based, mouse; details: STAT3-IN-1 1 μM, Sttatic 2 μM, CPT 5 μM, 3 days
# Experimental: as §1, §2
# phospho-ERK (p-ERK) = assay: Western blot for phospho-ERK in Meta3 and Meta4 organoids; assay type: cell-based, mouse; details: Meta4; 3 days
# Experimental: (§3) FIG. 3C-3D show the Western blot analysis for p-STAT3 and p-ERK in Meta3 and Meta4 organoids (FIG. 3C) and ratios of p-STAT3/total STAT3 and p-ERK/total ERK (FIG. 3D). […] FIG. 3F-3G show phase-contrast images of Meta4 organoids treated with DMSO, Pyr (100 nM), STAT3-IN-1 (1 μM), Stattic (2 μM), and Cryptotanshinone (CPT) (5 μM) for 3 days (FIG. 3F), and quantitation of organoid diameters before and after treatment (FIG. 3G). FIG. 3H-3I show phase-contrast images of Meta4 organoids treated with DMSO, trametinib (Tra), STAT3-IN-1, combination of Tra and STAT3-IN-1, and Pyr, for 3 days (FIG. 3H), and quantitation of organoid diameters before and after treatment (FIG. 3I). FIG. 3J-3K show western blot for p-STAT3 and p-ERK after treatment of Tra, Pyr, and SSTC3 (FIG. 3J) and ratios of p-STAT3/t-STAT3 and p-ERK/t-ERK (FIG. 3K). […] Relative quantification of each gene expression level was normalized to GAPDH gene expression. Shading scale represents the mRNA expression values. FIG. 3M show representative mRNA of Pim-1 and Cyclin-B1 after treatment. Mean±standard deviation. […] Scale bar=500 μM.
# (§4) Total proteins were extracted from organoids using radioimmunoprecipitation assay buffer (10 mmol/L Tris-HC, pH 7.2, 150 mmol/L NaCl, 5 mmol/L EDTA, 0.1% sodium dodecyl sulfate, 1.0% Triton X-100, 1% deoxycholate) with protease inhibitors. The protein concentration was measured The Bio-Rad Protein Assay (Bio-Rad Laboratories, Hercules, CA). 5 to 10 μg of total protein was loaded onto 12.5% or 10% sodium dodecyl sulfate/polyacrylamide gel electrophoresis (PAGE) and transferred onto polyvinylidene difluoride membranes (Millipore, Billerica, MA). […] After washes with TBS-T, chemiluminescence was detected with an Amersham Imager 680 instrument (GE Healthcare) after 1 mL of the SuperSignal West Femto Maximum Sensitivity Substrate (ThermoFisher) was applied to the membranes.
# phospho-STAT3 (p-STAT3) = assay: Western blot for phospho-STAT3 in Meta3 and Meta4 organoids; assay type: cell-based, mouse; details: Meta4; 3 days
# Experimental: as §3, §4
# [2] = pyrvinium-sensitive hPCO-2 line
Compound,organoid size / growth (Meta4 organoids),cell death (Meta4 organoids),response (growth and survival) [1],"organoid survival [1, 2]","organoid growth ([1]; pyrvinium-sensitive hPCO-2 line, 6 days)",survival and growth of organoids (Meta3 organoids),p-ERK levels (phospho-ERK (p-ERK)),phosphorylation of STAT3^Y705 (phospho-STAT3 (p-STAT3))
O=[N+]([O-])c1ccc2c(c1)S(=O)(=O)C=C2 [Sttatic],induced growth arrest,did not lead to cell death,did not respond,survived until 6 days after the treatment,arrested organoid growth,no influence on the survival and growth,–,–
COc1cc(/C=C/c2ccc(NC(=O)/C=C/c3cc(OC)c(OC)c(OC)c3)cc2)cc(OC)c1 [STAT3-IN-1],induced growth arrest,did not lead to cell death,did not respond,survived until 6 days after the treatment,–,no influence on the survival and growth,–,–
CN(c1ccc(C(F)(F)F)cc1)S(=O)(=O)c1ccc(C(=O)Nc2nc(-c3ccccn3)cs2)cc1 [SSTC3],did not cause any growth suppression or cell death,did not cause any growth suppression or cell death,–,–,–,–,did not reduce,did not reduce
